Test results published in ChEMBL document CHEMBL3885861, “Open TG-GATES”.

Organism: Rattus norvegicus
Experiment: Open TG-GATES - Regimen: Daily Repeat
Type: toxicity, organism-based, Sprague-Dawley
Parameters: regimen Daily Repeat, gender Male, age 6 weeks
Conditions: in vivo, po, route gavage; for Bas / Eos / Fbg / Hb / Ht / Lym / MCHC / MCV / Mono / PT / Plat / RBC / Ret / WBC / Neu: tissue Blood; for ALP / ALT / AST / CRE / Ca / Cl / DBIL / GLC / IP / K / LDH / Na / PL / RALB / TBIL / TC / TG / TP / gamma-GTP / BUN: tissue Plasma
[1] = 0 mg/kg, 72 h, dose level Control, time 3 day
[2] = 0 mg/kg, […], dose level Control, time 7 day
[3] = 0 mg/kg, […], dose level Control, time 14 day
[4] = 0 mg/kg, […], dose level Control, time 28 day
[5] = 100 mg/kg, 72 h, dose level Low, time 3 day
[6] = 100 mg/kg, […], dose level Low, time 7 day
[7] = 100 mg/kg, […], dose level Low, time 14 day
[8] = 100 mg/kg, […], dose level Low, time 28 day
[9] = 300 mg/kg, 72 h, dose level Middle, time 3 day

`O=C(O)c1cccnc1` [NIACIN] showed a TERMINAL_BW [1] of 241.1 g, a Bas [1] of 0% and an Eos [1] of 0.8%. For the same molecule, the Fbg [1] was 321 mg/dL, the Hb [1] was 12.8 g/dL and the Ht [1] was 38.2%. For the same molecule, the Lym [1] was 81.2%, the MCHC [1] was 33.5% and the MCV [1] was 62.4 fL. The Mono [1] was 3%, the PT [1] was 15.9 s and the Plat [1] was 125.7 x10_4/uL. It also gave an RBC [1] of 612.4 x10_4/ul, a Ret [1] of 7.8% and a WBC [1] of 116.2 x10_2/uL. For the same molecule, the ALP [1] was 1807.6 IU/L, the ALT [1] was 48 IU/L and the AST [1] was 73.2 IU/L. The CRE [1] was 0.2 mg/dL, the Ca [1] was 10.7 mg/dL and the Cl [1] was 104.2 meq/L. It also gave a DBIL [1] of 0 mg/dL, a GLC [1] of 201.8 mg/dL and an IP [1] of 7.7 mg/dL. The K [1] was 4.4 meq/L, the LDH [1] was 161.4 IU/L and the Na [1] was 139.2 meq/L. It also gave a PL [1] of 151.6 mg/dL, an RALB [1] of 3.1 g/dL and a TBIL [1] of 0 mg/dL. For the same molecule, the TC [1] was 80 mg/dL, the TG [1] was 92.8 mg/dL and the TP [1] was 5.6 g/dL. For the same molecule, the gamma-GTP [1] was 1.4 IU/L, the TERMINAL_BW [2] was 268.8 g and the TERMINAL_BW [3] was 327.5 g. The TERMINAL_BW [4] was 405.7 g, the Bas [2] was 0% and the Eos [2] was 1%. It also gave a Fbg [2] of 334.8 mg/dL, a Ht [2] of 41.3% and a Lym [2] of 78.2%. For the same molecule, the MCHC [2] was 34.3%, the Mono [2] was 3.2% and the Neu [2] was 16.8%. For the same molecule, the PT [2] was 16.5 s, the Plat [2] was 116.1 x10_4/uL and the RBC [2] was 681 x10_4/ul. It also gave a Ret [2] of 5.5%, a WBC [2] of 120.8 x10_2/uL and a Bas [3] of 0%. For the same molecule, the Eos [3] was 1%, the Fbg [3] was 329 mg/dL and the Ht [3] was 41.5%. For the same molecule, the Lym [3] was 77.8%, the MCHC [3] was 34.2% and the MCV [3] was 60.4 fL. It also gave a Mono [3] of 2.6%, a Neu [3] of 17% and a PT [3] of 15.9 s. The Plat [3] was 115.7 x10_4/uL, the RBC [3] was 688.8 x10_4/ul and the Ret [3] was 5.1%. For the same molecule, the WBC [3] was 127.5 x10_2/uL, the Bas [4] was 0% and the Eos [4] was 1.2%. It also gave a Fbg [4] of 331.4 mg/dL, a Hb [4] of 15 g/dL and a Ht [4] of 42.7%. For the same molecule, the Lym [4] was 80.6%, the MCHC [4] was 35.2% and the MCV [4] was 56.6 fL. The Mono [4] was 2%, the Neu [4] was 15% and the PT [4] was 16.5 s. It also gave a Plat [4] of 89.6 x10_4/uL, an RBC [4] of 754.4 x10_4/ul and a Ret [4] of 3%. For the same molecule, the WBC [4] was 119.1 x10_2/uL, the ALP [2] was 1431.4 IU/L and the ALT [2] was 37.2 IU/L. The AST [2] was 67 IU/L, the CRE [2] was 0.1 mg/dL and the Ca [2] was 10.8 mg/dL. For the same molecule, the Cl [2] was 105.2 meq/L, the DBIL [2] was 0 mg/dL and the GLC [2] was 190.4 mg/dL. It also gave an IP [2] of 7.4 mg/dL, a K [2] of 4.2 meq/L and an LDH [2] of 155.6 IU/L. The Na [2] was 139.8 meq/L, the PL [2] was 160.4 mg/dL and the RALB [2] was 3 g/dL. The TBIL [2] was 0 mg/dL, the TC [2] was 78.6 mg/dL and the TG [2] was 130 mg/dL. The TP [2] was 5.7 g/dL, the gamma-GTP [2] was 1.6 IU/L and the ALP [3] was 1595.6 IU/L. The AST [3] was 68 IU/L, the CRE [3] was 0.2 mg/dL and the Ca [3] was 10.6 mg/dL. The Cl [3] was 104.2 meq/L, the DBIL [3] was 0 mg/dL and the GLC [3] was 198.2 mg/dL. For the same molecule, the IP [3] was 7.1 mg/dL, the K [3] was 4 meq/L and the LDH [3] was 163.6 IU/L. It also gave a Na [3] of 138 meq/L, a PL [3] of 156 mg/dL and an RALB [3] of 3.1 g/dL. The TBIL [3] was 0.006 mg/dL, the TC [3] was 75.6 mg/dL and the TG [3] was 144.2 mg/dL. For the same molecule, the TP [3] was 5.9 g/dL, the gamma-GTP [3] was 1 IU/L and the ALP [4] was 1086.6 IU/L. The ALT [4] was 37.4 IU/L, the AST [4] was 63.8 IU/L and the BUN [4] was 17.8 mg/dL. For the same molecule, the CRE [4] was 0.2 mg/dL, the Ca [4] was 10.1 mg/dL and the Cl [4] was 106.4 meq/L. It also gave a DBIL [4] of 0 mg/dL, a GLC [4] of 214.4 mg/dL and an IP [4] of 6.9 mg/dL. The K [4] was 4.2 meq/L, the LDH [4] was 150.6 IU/L and the Na [4] was 142.8 meq/L. It also gave a PL [4] of 149.4 mg/dL, an RALB [4] of 3.1 g/dL and a TBIL [4] of 0.012 mg/dL. It also gave a TC [4] of 76.6 mg/dL, a TG [4] of 121 mg/dL and a TP [4] of 5.9 g/dL. The gamma-GTP [4] was 2.4 IU/L, the TERMINAL_BW [5] was 239.7 g and the Bas [5] was 0%. It also gave an Eos [5] of 1.2%, a Fbg [5] of 317.2 mg/dL and a Hb [5] of 13.7 g/dL. It also gave a Ht [5] of 40.5%, a Lym [5] of 70.2% and an MCV [5] of 63.5 fL. The Mono [5] was 4%, the Neu [5] was 23.2% and the Plat [5] was 107.5 x10_4/uL. For the same molecule, the RBC [5] was 637 x10_4/ul, the Ret [5] was 6.9% and the WBC [5] was 128.4 x10_2/uL. For the same molecule, the ALP [5] was 1717.8 IU/L, the ALT [5] was 49 IU/L and the AST [5] was 79.2 IU/L. The BUN [5] was 16 mg/dL, the CRE [5] was 0.1 mg/dL and the Ca [5] was 10.8 mg/dL. It also gave a Cl [5] of 104.2 meq/L, a DBIL [5] of 0 mg/dL and a GLC [5] of 199.8 mg/dL. For the same molecule, the IP [5] was 7.4 mg/dL, the K [5] was 3.9 meq/L and the LDH [5] was 171.8 IU/L. The Na [5] was 139.2 meq/L, the PL [5] was 163.8 mg/dL and the RALB [5] was 3.1 g/dL. The TBIL [5] was 0 mg/dL, the TC [5] was 84.2 mg/dL and the TG [5] was 110.8 mg/dL. The TP [5] was 5.8 g/dL, the gamma-GTP [5] was 1.2 IU/L and the TERMINAL_BW [6] was 273.1 g. It also gave a TERMINAL_BW [7] of 326.9 g, a TERMINAL_BW [8] of 387.9 g and a Bas [6] of 0%. The Eos [6] was 1%, the Fbg [6] was 316 mg/dL and the Hb [6] was 13.5 g/dL. It also gave a Ht [6] of 39.5%, a Lym [6] of 82% and an MCHC [6] of 34.1%. The MCV [6] was 60.8 fL, the Mono [6] was 3% and the Neu [6] was 12.8%. For the same molecule, the PT [6] was 16 s, the Plat [6] was 109.3 x10_4/uL and the RBC [6] was 650 x10_4/ul. It also gave a Ret [6] of 5.9%, a WBC [6] of 109.2 x10_2/uL and a Bas [7] of 0%. For the same molecule, the Eos [7] was 1%, the Fbg [7] was 330.8 mg/dL and the Ht [7] was 41.5%. It also gave a Lym [7] of 75.2%, an MCHC [7] of 34% and a Mono [7] of 2.6%. For the same molecule, the Neu [7] was 20%, the PT [7] was 15.8 s and the Plat [7] was 107.6 x10_4/uL. It also gave an RBC [7] of 685 x10_4/ul, a Ret [7] of 4.7% and a WBC [7] of 102.7 x10_2/uL. For the same molecule, the Bas [8] was 0%, the Eos [8] was 1% and the Fbg [8] was 330.4 mg/dL. The Hb [8] was 15.2 g/dL, the Ht [8] was 43.1% and the Lym [8] was 83.4%. It also gave an MCHC [8] of 35.3%, an MCV [8] of 56 fL and a Mono [8] of 2.4%. For the same molecule, the Neu [8] was 11.8%, the PT [8] was 16.5 s and the Plat [8] was 102.2 x10_4/uL. It also gave an RBC [8] of 770 x10_4/ul, a Ret [8] of 2.8% and a WBC [8] of 117.4 x10_2/uL. The ALP [6] was 1740.2 IU/L, the ALT [6] was 44.4 IU/L and the AST [6] was 69 IU/L. For the same molecule, the BUN [6] was 17.2 mg/dL, the CRE [6] was 0.2 mg/dL and the Ca [6] was 10.7 mg/dL. The Cl [6] was 104.8 meq/L, the DBIL [6] was 0 mg/dL and the GLC [6] was 171.4 mg/dL. It also gave an IP [6] of 7.3 mg/dL, a K [6] of 4.7 meq/L and an LDH [6] of 141 IU/L. The Na [6] was 138.8 meq/L, the PL [6] was 145 mg/dL and the RALB [6] was 2.9 g/dL. The TBIL [6] was 0 mg/dL, the TC [6] was 66.6 mg/dL and the TG [6] was 150 mg/dL. For the same molecule, the TP [6] was 5.5 g/dL, the gamma-GTP [6] was 1.4 IU/L and the ALP [7] was 1532.6 IU/L. For the same molecule, the ALT [7] was 42.8 IU/L, the AST [7] was 73.6 IU/L and the BUN [7] was 17 mg/dL. It also gave a CRE [7] of 0.2 mg/dL, a Ca [7] of 10.5 mg/dL and a Cl [7] of 104.6 meq/L. It also gave a DBIL [7] of 0 mg/dL, a GLC [7] of 196.4 mg/dL and an IP [7] of 6.4 mg/dL. The K [7] was 4 meq/L, the LDH [7] was 209 IU/L and the Na [7] was 138.4 meq/L. For the same molecule, the PL [7] was 144.4 mg/dL, the RALB [7] was 3 g/dL and the TBIL [7] was 0.002 mg/dL. It also gave a TC [7] of 66.8 mg/dL, a TG [7] of 150.8 mg/dL and a TP [7] of 5.8 g/dL. For the same molecule, the gamma-GTP [7] was 1.4 IU/L, the ALP [8] was 1249.8 IU/L and the ALT [8] was 39.8 IU/L. It also gave an AST [8] of 64.6 IU/L, a BUN [8] of 18.2 mg/dL and a CRE [8] of 0.2 mg/dL. For the same molecule, the Ca [8] was 10.4 mg/dL, the Cl [8] was 107 meq/L and the DBIL [8] was 0 mg/dL. For the same molecule, the GLC [8] was 192.8 mg/dL, the IP [8] was 6.5 mg/dL and the K [8] was 4.2 meq/L. The LDH [8] was 129.4 IU/L, the Na [8] was 143.4 meq/L and the PL [8] was 147.6 mg/dL. For the same molecule, the RALB [8] was 3.1 g/dL, the TBIL [8] was 0.014 mg/dL and the TC [8] was 70.6 mg/dL. For the same molecule, the TG [8] was 158.8 mg/dL, the TP [8] was 6 g/dL and the gamma-GTP [8] was 2 IU/L. It also gave a TERMINAL_BW [9] of 241.8 g and a Bas [9] of 0%.
